The conditions of data set [1]: in man; cited from earlier work.
The subject of data set [2] is mouse spleen lymphocytes (MSL). Nature of the data set: Mouse spleen lymphocyte proliferation to Con A. The settings on record: 0.1, 1, 10, 100 μg/ml; Con A 0.5 μg/ml. Format: cell-based. The method, then:
(§1) In vitro: Both human peripheral blood lymphocytes (HPBL) and mouse spleen lymphocytes (MSL) were employed. […] For HPBL transformation, PHA and PWM were used at 0.5 μg/ml. For MSL transformation, Con A was used at 0.5 μg/ml, phytohemagglutinin (PHA, Murex Diagnostics, Atlanta, Ga.) at 0.5 μg/ml and lipopolysaccharide endotoxin (LPS, Sigma, St. Louis, Mo.) at 10 μg/ml.
(§2) They were cultured in microwell plates at 1.5×10^6 cells/ml of minimal essential media (MEM, Gibco Labs, Grand Island, N.Y.) with 5% fetal calf serum (FCS, Hyclone Labs, Logan, Utah) and tested for their proliferative response to mitogens as measured by incorporation of (^3 H) tritiated thymidine (New England Nuclear, Wilmington Del., […]; 2.5 μCi/ml) during a terminal pulse followed by liquid scintillation spectrometry.

For data set [3], the system named is human peripheral blood lymphocytes (HPBL). Nature of the data set: Response of normal HPBL to PHA (tritiated thymidine incorporation). Format: cell-based. The settings on record: 0.1-100 μg/ml; FIG. 1. As to the method:
as §1, §2

For data set [4], the system named is spleen plaque antibody forming cells (PFC). The data set is described as follows: In vivo stimulation of PFC response to SRBC. Details: species or system mice. The following applies: for effect on PFC response: 50 mg/kg of body weight ip with SRBC, PFC five days later; for dose of optimal stimulation of PFC response: intraperitoneal. As to the method:
Five days later, suspensions of spleen cells were prepared and their viability was determined by trypan blue exclusion test. Cells were suspended at 3×10^6 /ml. 0.2 ml of spleen cell suspension was mixed with 0.8 ml of 0.7% agarose and 0.2 ml of freshly washed SRBC (at 6×10^5 /ml). The mixture was immediately poured into the plate and allowed to solidify. After 60 minutes of incubation at 37° C. in a humid atmosphere of 5% CO2 in the air, the plate was flooded with 1 ml of guinea-pig complement diluted 1:5 with Hank's balanced saline. Hemolytic plaques were counted with an inverted scope using 4× magnification.
Spleen plaque antibody forming cells (PFC) were measured at the end of the five days.

A further data set in a line: in vitro. Format: in vitro ADME, Crotalus atrox. The settings on record: rattlesnake, pH 7.3; 0.02 units 5'-nucleotidase, 37° C., 10 minutes; four experiments; read-out: Hydrolysis (%). The method, then: (§3) Nucleotide samples (40-60 nmoles) were incubated at 37° C. for 10 minutes with 0.02 units 5'-nucleotidase in a total volume of 100 μl containing […] HEPES, pH 7.3 and […] MgCl2. […] Phosphate was determined by the absorbance of 820 nm. Blanks consisting of nucleotide but no enzyme were tested in parallel to correct for non-enzymatic hydrolysis.

The test system of data set [5] is 5'-nucleotidase (from Crotalus atrox venom). The data set is described as follows: in vitro. Format: in vitro ADME. The following applies: in words. The method, then: as §3
The subject of a further data set is influenza virus. Format: in vivo, NMRI mice. The settings on record: Squalane alone.

Here are results for six molecules from patent US5614504A, “Method of making inosine monophosphate derivatives and immunopotentiating uses thereof” (The University of South Florida, priority 1995, dated 1997).

Take isoprinosine: the half-life entry in data set [1] was “less than four”.

Regarding `CC(CCCC(C)(C)O)NP(=O)(O)OC[C@H]1O[C@@H](n2cnc3c(=O)[nH]cnc32)[C@H](O)[C@@H]1O` (stereo partly shown) [Ha-IMP, (Heptamin-1-ol)-5'-inosine-monophosphate], the “proliferative responses of MSL to Con A” value in data set [2] was “stimulated the proliferative responses”. In addition, the “relative activity on HPBL response to PHA” value (from here on “relative activity”) in data set [3] was “low”. For the same molecule, in data set [4], the “effect on PFC response” value is “significantly stimulated” and the “dose of optimal stimulation of PFC response” value is 50 mg/kg of body weight. Further, the metabolised at 10 min in the data set “in vitro” worked out at 76%. Also, the “resistance to hydrolysis by 5'-nucleotidase” value (from here on “resistance to hydrolysis”) in data set [5] is recorded as “mild”.

In the case of `N=C(N)NCCC[C@H](NP(=O)(O)OC[C@H]1O[C@@H](n2cnc3c(=O)[nH]cnc32)[C@H](O)[C@@H]1O)C(=O)O` [Arg-IMP, Arginine-5'-inosine-monophosphate], the “proliferative responses of MSL to Con A” value in data set [2] is given as “stimulated the proliferative responses”. Besides, in data set [3], the “relative activity” value is “more active”. Moreover, in data set [4], the “effect on PFC response” value is given as “significantly stimulated” and the “dose of optimal stimulation of PFC response” value is 50 mg/kg of body weight. Moreover, in the data set “in vitro”, the metabolised at 10 min was determined as 12%. Also, the “resistance to hydrolysis” value in data set [5] is on record as “moderate”.

For the molecule `Nc1ncnc2c1ncn2[C@@H]1O[C@H](COP(=O)(O)O)[C@@H](O)[C@H]1O` [Adenosine MP, adenosine-5'-monophosphate, reference compound], the metabolised at 10 min in the data set “in vitro” is 86%.

Take `CCOP(=O)(O)OC[C@H]1O[C@@H](n2cnc3c(=O)[nH]cnc32)[C@H](O)[C@@H]1O` [E-IMP, Ethyl-5'-inosine-monophosphate]: the “proliferative responses of MSL to Con A” value in data set [2] is recorded as “stimulated the proliferative responses”. For the same molecule, the “relative activity” value in data set [3] is “more active”. Besides, the metabolised at 10 min in “in vitro” amounted to 2.9%. In addition, the “resistance to hydrolysis” value in data set [5] is given as “extremely resistant”.

For `CC(C)CCCC(C)CCCC(C)CCCCC(C)CCCC(C)CCCC(C)C` (stereo not shown) [Squalane, reference compound], in the data set with influenza virus, the “effect on survival after influenza challenge” value is given as “no effect”.
